The series can be described thus: storage stability of the solid salt forms at 90° C. for 4 days (discoloration, decomposition). The series is classed as physicochemical.

With `COc1ccnc(C[S+]([O-])c2nc3cc(OC(F)F)ccc3[n-]2)c1OC.COc1ccnc(C[S+]([O-])c2nc3cc(OC(F)F)ccc3[n-]2)c1OC.O.O.[Mg+2]` (centres unmarked) [pantoprazole magnesium dihydrate], where the note is “4 days at 90° C.”, the discoloration or decomposition result was “almost no discoloration or decomposition” and the stability result is “completely stable”. The “stability properties in comparison with other forms” value (compared with pantoprazole itself, pantoprazole sodium sesquihydrate and pantoprazole sodium monohydrate) is on record as “very considerably improved stability properties”.

Consider `COc1ccnc(C[S+]([O-])c2nc3ccc(OC(F)F)cc3[nH]2)c1OC` (centres unmarked) [pantoprazole sodium sesquihydrate, sodium[5-[difluoromethoxy]-2-[[3,4-dimethoxy-2-pyridinyl]methyl]sulfinyl]-1H-benzimidazolide]sesquihydrate, reference compound], for which, for the setting “4 days at 90° C.”, the discoloration or decomposition result is listed as “turn brown-red” and the “formation of decomposition products” value was “considerable amounts of decomposition products”.
